The source made the active and inactive calls. The rule behind the calls is not given here.
Columns and labels:
Calf thymus DNA [1] = experiment: Binding affinity to calf thymus DNA assessed as hypochromic effect by UV-visible spectrophotometer; assay type: nucleic-acid assay; set-up: concentration or dose not given beside the values; details: Bos taurus
Calf thymus DNA [2] = experiment: Binding affinity to calf thymus DNA at pH 7.4 by UV-visible spectrophotometer; assay type: nucleic-acid assay; details: Bos taurus
Bos taurus [3] = species on record: Bos taurus; experiment: Inhibition of calf thymus topoisomerase 1-mediated supercoiled DNA relaxation at 5 uM after 45 mins by ethidium bromide staining agarose gel electrophoresis
Bos taurus [4] = species on record: Bos taurus; experiment: Inhibition of calf thymus topoisomerase 1-mediated supercoiled DNA relaxation at 40 uM after 45 mins by ethidium bromide staining agarose gel electrophoresis
HL-60 [5] = experiment: Cytotoxicity against human HL60 cells after 48 hrs by MTT assay; assay type: functional, cell-based; details: HL-60, 48 h
HL-60 [6] = experiment: Cytotoxicity against human HL60 cells after 72 hrs by MTT assay; assay type: functional, cell-based; details: HL-60, 72 h
L1210 [7] = experiment: Cytotoxicity against mouse L1210 cells after 48 hrs by MTT assay; assay type: functional, cell-based; details: L1210, 48 h
L1210 [8] = experiment: Cytotoxicity against mouse L1210 cells after 72 hrs by MTT assay; assay type: functional, cell-based; details: L1210, 72 h
HL-60 [9] = experiment: Cytotoxicity against human HL60 cells after 48 hrs by trypan blue dye exclusion test; assay type: functional, cell-based; details: HL-60, 48 h
HL-60 [10] = experiment: Cytotoxicity against human HL60 cells after 72 hrs by trypan blue dye exclusion test; assay type: functional, cell-based; details: HL-60, 72 h
L1210 [11] = experiment: Cytotoxicity against mouse L1210 cells after 48 hrs by trypan blue dye exclusion test; assay type: functional, cell-based; details: L1210, 48 h
L1210 [12] = experiment: Cytotoxicity against mouse L1210 cells after 72 hrs by trypan blue dye exclusion test; assay type: functional, cell-based; details: L1210, 72 h
[13] = Octanol-water partition coefficient, log P of the compound; assay type: physicochemical
HL-60 [14] = experiment: Drug uptake in human HL60 cells assessed as drug accumulation at 5 uM after 140 mins by fluorescence analysis; assay type: ADME, cell-based; details: hl-60, 140 min
HL-60 [15] = experiment: Drug uptake in human HL60 cells assessed as drug distribution in plasmatic membrane and cytosol at 5 uM after 4 hrs by fluorescence analysis; assay type: ADME, cell-based; details: hl-60, 4 h
HL-60 [16] = experiment: Drug uptake in human HL60 cells assessed as drug accumulation in nucleus at 5 uM after 24 hrs by fluorescence analysis; assay type: ADME, cell-based; details: hl-60, 24 h
U-937 = experiment: Induction of apoptosis in human U937 cells assessed as DNA fragmentation at 122 uM after 18 hrs by ethidium bromide staining agarose gel electrophoresis; assay type: functional, cell-based
Calf thymus DNA [17] = experiment: Binding affinity to C:G base pair region of calf thymus DNA by UV-visible spectrophotometer; assay type: nucleic-acid assay; details: Bos taurus
Calf thymus DNA [18] = experiment: Binding affinity to A:T base pair region of calf thymus DNA by UV-visible spectrophotometer; assay type: nucleic-acid assay; details: Bos taurus
HL-60 [19] = experiment: Antiproliferative activity against human HL60 cells assessed as cytostatic effect at 1 uM after 72 hrs; assay type: functional, cell-based
HL-60 [20] = experiment: Cytotoxicity against human HL60 cells at 3 to 10 uM after 72 hrs; assay type: functional, cell-based

Row | SMILES | Activity (Calf thymus DNA [1]) [%] | K (Calf thymus DNA [2]) [×10⁵ /M] | inhibition (Bos taurus [3]) | inhibition (Bos taurus [4]) | IC50 (HL-60 [5]) [µM] | IC50 (HL-60 [6]) [µM] | IC50 (L1210 [7]) [µM] | IC50 (L1210 [8]) [µM] | IC50 (HL-60 [9]) [µM] | IC50 (HL-60 [10]) [µM] | IC50 (L1210 [11]) [µM] | IC50 (L1210 [12]) [µM] | logP [13] | Drug uptake (HL-60 [14]) | Drug uptake (HL-60 [15]) | Drug uptake (HL-60 [16]) | Activity (U-937) | Activity (Calf thymus DNA [17]) | Activity (Calf thymus DNA [18]) | further results
1 | CCCN1C(=O)CN/C1=N\c1ccc2cc3ccc(/N=C4\NCC(=O)N4CCC)cc3nc2c1.Cl | 54 | 5.7 | inactive | Active | 74.1 | 95.7 | 45.8 | 68 | 70.6 | 88.6 | 44.7 | 65.4 | 3.21 | Not Active | Active | Not Active | Active | Active | inactive | –
2 | CCCCCN1C(=O)CN/C1=N\c1ccc2cc3ccc(/N=C4\NCC(=O)N4CCCCC)cc3nc2c1 | 45 | 2.8 | inactive | Active | 8.37 | 8.59 | 13.7 | 15.2 | 5.31 | 7.18 | 12.4 | 15.7 | 4.99 | – | – | – | Active | Active | inactive | –
3 | CCCCCCN1C(=O)CN/C1=N\c1ccc2cc3ccc(/N=C4\NCC(=O)N4CCCCCC)cc3nc2c1.Cl | 47 | 1.9 | inactive | Active | 4.61 | 4.94 | 5.52 | 5.99 | 2.44 | 2.12 | 4.31 | 5.28 | 5.88 | Active | Active | Active | Active | Active | inactive | Activity (HL-60 [19]): Active; Activity (HL-60 [20]): Toxic
4 | CCN1C(=O)CN/C1=N\c1ccc2cc3ccc(/N=C4\NCC(=O)N4CC)cc3nc2c1 | 34 | 7.1 | inactive | Active | 76.6 | 80.3 | > 100 | > 100 | 83.8 | 85.2 | 91.7 | > 100 | 2.17 | – | – | – | Active | Active | inactive | –
5 | CCCCN1C(=O)CN/C1=N\c1ccc2cc3ccc(/N=C4\NCC(=O)N4CCCC)cc3nc2c1 | 50 | 4.2 | inactive | Active | 13.7 | 16.4 | 29.2 | 26.1 | 11.7 | 14.7 | 26.4 | 27.3 | 4.1 | – | – | – | Active | Active | inactive | –

— ChEMBL document CHEMBL1681700, “Cytotoxic 3,6-bis((imidazolidinone)imino)acridines: synthesis, DNA binding and molecular modeling” (Bioorg Med Chem, 2011)
